“And” between values parts separate entries of the source, which are not always exact repeats. Identical values can stand only once.
Test system: KPC CCs liver colonization
Assay: Intrasplenic model of liver colonization, late administration of treatment (established metastases)
Assay type: in vivo, mouse
Details: for Quantification of metastases/mm2 (late administration): Figure 5F, intrasplenic liver colonization, individual animals; for metastatic burden in liver: treatment from day 4, established metastases
Protocol: Fig. 5 PXS-5505 administered in intrasplenic models of liver colonization. a, Schematic of the intrasplenic model of liver colonization with early administration of treatment. CCs were implanted into the spleen of BALB/c-Fox1nuAusb mice under anesthesia on day 0. Treatment with 0.9% saline (vehicle); twice-weekly Gem (100 mg kg^−1 i.p.) (Gem); daily PXS-5505 at 20 mg kg^−1 i.p. (PXS-5505) or daily PXS-5505 at 20 mg kg^−1 i.p. + twice-weekly Gem at 100 mg kg^−1 i.p. (PXS-5505 + Gem) was administered from day 1. At the end point (day 10) livers were collected and H&E-stained for scoring. Representative images of H&E-stained liver (taken from one biologically independent animal). Scale bar, 100 μm. b, Representative images of H&E-stained livers from each treatment group (n = 1 FOV taken from one biologically independent animal per group). Scale bars, 100 μm. c, Quantification of metastases per mm^2 (n = 9 biologically independent animals per group). Data are mean ± s.d. […] Data are mean ± s.d. Two-tailed P values were determined by an unpaired, nonparametric t-test with a Mann–Whitney U-test correction (comparison between two groups). e, Schematic of intrasplenic model of liver colonization with late administration of treatment. CCs were implanted into the spleen of BALB/c-Fox1nuAusb mice under anesthesia on day 0. Treatment with 0.9% saline (vehicle); twice-weekly Gem (100 mg kg^−1 i.p.) (Gem); daily PXS-5505 at 20 mg kg^−1 i.p. (PXS-5505); or daily PXS-5505 at 20 mg kg^−1 i.p. + three doses of Gem (100 mg kg^−1 i.p. (PXS-5505 + Gem) was administered from day 4. Representative images of H&E-stained liver (taken from one biologically independent animal). Scale bar, 100 μm. f, Quantification of metastases at endpoint (n = 10 biologically independent animals per treatment group, n = 5 biologically independent animals at day 4 for confirmation of overt metastases). Data are mean ± s.d. P values were determined by an unpaired, nonparametric t-test with a Mann–Whitney U-test correction (comparison between two groups). g, Representative images of H&E-stained livers from each treatment group. Scale bars, 100 μm. Source data
For the intrasplenic models, animals were randomized before receiving treatment. GLP-grade PXS-5505 (20 mg kg^−1) was administered daily i.p. (starting day 0 for the early stage and day 4 for the late stage) until the end point and gemcitabine (100 mg kg^−1) was administered on days 3, 6 and 9 for the early stage and days 5, 7 and 10 for the late stage. […]
The 4-µm formalin-fixed paraffin-embedded (FFPE) sections were cut and stained for H&E following standard histopathology methodologies or stained for CK19 using the Bond RX H2(30) protocol detailed above. […] The total number of liver metastases were quantified and determined using QuPath[57].

SMILES | Quantification of metastases/mm2 (late administration) | metastatic burden in liver
Cl.Cl.NC/C=C(\F)CS(=O)(=O)c1cccc2cccnc12.O [PXS-5505, (Z)-3-fluoro-4-(quinolin-8-ylsulfonyl)but-2-en-1-amine dihydrochloride monohydrate] | 0.001672 metastases/mm2 and 0.001212 metastases/mm2 and 0.001664 metastases/mm2 and 0.001776 metastases/mm2 and 0.002261 metastases/mm2 and 0.001845 metastases/mm2 and 0.0007878 metastases/mm2 and 0.001204 metastases/mm2 and 0.001477 metastases/mm2 and 0.001663 metastases/mm2 | did not significantly alter metastatic burden
Nc1ccn([C@@H]2O[C@H](CO)[C@@H](O)C2(F)F)c(=O)n1 [Gem, gemcitabine] | 0.001632 metastases/mm2 and 0.001329 metastases/mm2 and 0.001736 metastases/mm2 and 0.001305 metastases/mm2 and 0.001793 metastases/mm2 and 0.001126 metastases/mm2 and 0.001529 metastases/mm2 and 0.001107 metastases/mm2 and 0.001352 metastases/mm2 and 0.001209 metastases/mm2 | did not significantly alter metastatic burden
